From patent US20220177484A1, “MACROCYCLES WITH ANTIOXIDANT AND NEUROPROTECTIVE ACTIVITIES” (INSTITUTO BIOMAR, S.A, priority 2019, published 2022)

Columns and labels:
[1] = tested on: SH-SY5Y human neuroblastoma cells expressing mutated huntingtin (pEGFP-Q74); experiment: Mutated huntingtin aggregation in transfected SH-SY5Y cells; assay type: cell-based; conditions: 5 μM, 24 h
Experimental: Mutated huntingtin proteins aggregation are indicated by white arrows, GFP huntingtin protein (green) and β-tubulin (red). The images were acquired using the Operetta CLS automated confocal microscope, using the 40× water immersion objective.
SH-SY5Y human neuroblastoma cells were maintained in Dulbecco's modified Eagle's medium (DMEM) supplemented with 10% fetal bovine serum (FBS), 2 mM L-glutamine and 100 U/mL penicillin-0.1 mg/mL streptomycin at 37° C. and 5% CO2.
To study the effect of compounds on mutated huntingtin and synuclein that accumulates in cells, SH-SY5Y were transfected with a constitutively active mutated-huntingtin expression vector pEGFP-Q74 (encoding EGFP protein fused to a fragment of huntingtin corresponding to the exon 1 with 74 CAG repeats; c.54GCA[74]; Addgene; #40262) and EGFP-alphasynuclein-A53T (Addgene; #40823).
For transfection assays, cells were seeded (30×10^3 cells/cm^2) on 96-multiwell plates (coated with poliornitine-fibronectine). Cells were transfected with 0.3 μg pEGFP-Q74 plasmid using LTX with Plus Reagent according to the manufacturer's instructions (Thermo Fisher). After 24-h, the medium was changed with a new one, and cells were treated with increasing amounts of GKK1032C and CL0670 (0.1 μM, 1 μM and 5 μM) or DMSO (control cells) for 24 h at 37° C. […]

[2] = tested on: rat cortical primary neurons; experiment: Protein concentration in neurons incubated with L-BSO and rotenone (neuronal death); assay type: cell-based; conditions: L-BSO and rotenone 3 or 6 h with compound at 0.1, 1 or 5 μg/ml; effect as from 0.1 μg/ml (6 h) (FIG. 4)

Compound	mutated huntingtin and number of aggregates [1]	decrease in protein concentration remaining in the wells (neuronal death) [2]
C=CC1(C)C=C(C)C2C3C(Oc4ccc(cc4)CC4C(=O)NC(O)C4C(=O)C31)C1C(C)CC(C)CC21C (centres unmarked) [CL0670]	significantly decreased	–
C=CC1(C)C=C(C)C2C3C(Oc4ccc(cc4)CC4(O)NC(=O)C5(OC45)C(=O)C31)C1C(C)CC(C)CC21C (centres unmarked) [Compound I]	–	dose-dependently prevented such decrease
